# Results: patent US8362066B2, “Compounds and methods for treating protein folding disorders” (Treventis Corporation, priority 2006, dated 2013)
# Legend:
# Aβ1-40 [1] = biological target: T1, Aβ1-40 (Homo sapiens, UniProt P05067); assay: ThT fluorescence assay, inhibition of Aβ1-40 aggregation; assay type: biochemical
# T1 construct: Both Aβ1-40 and Aβ1-42 were purchased from Anaspec; purchased Anaspec
# Description: The compounds of the invention were evaluated for activity against Aβ aggregation in a kinetic thioflavin T (ThT) fluorescence assay similar to that of Chalifour, R. J., et al., J. Biol. Chem. (2003) 278: 34874-81. IC50 values for inhibition of Aβ1-40 aggregation in the ThT fluorescence assay for a number compounds of the present invention were determined. Values were calculated by solving the equation y=(m2)/(1+(x/m3)^m4) where y is percent aggregation, x is compound concentration, and m3 is the concentration giving 50% aggregation (i.e. IC50), using KaleidaGraph 4.0 (Synergy Software). Dye-binding ThT/ThS protein aggregation assays for Aβ, tau and α-synuclein were performed as described in Example 8 of US2007/0015813.
# Tau 441 [2] = biological target: T2, Tau 441 (Homo sapiens, UniProt P10636); assay: Tris-tricine SDS-PAGE, Tau 441 self-assembly following ThS aggregation assay; assay type: biochemical; conditions: FIG. 10; for effect on Tau 441 self-assembly, monomer fragmentation (SDS-PAGE): relative to control
# T2 sequence (P10636 1-441 isoform P10636-8): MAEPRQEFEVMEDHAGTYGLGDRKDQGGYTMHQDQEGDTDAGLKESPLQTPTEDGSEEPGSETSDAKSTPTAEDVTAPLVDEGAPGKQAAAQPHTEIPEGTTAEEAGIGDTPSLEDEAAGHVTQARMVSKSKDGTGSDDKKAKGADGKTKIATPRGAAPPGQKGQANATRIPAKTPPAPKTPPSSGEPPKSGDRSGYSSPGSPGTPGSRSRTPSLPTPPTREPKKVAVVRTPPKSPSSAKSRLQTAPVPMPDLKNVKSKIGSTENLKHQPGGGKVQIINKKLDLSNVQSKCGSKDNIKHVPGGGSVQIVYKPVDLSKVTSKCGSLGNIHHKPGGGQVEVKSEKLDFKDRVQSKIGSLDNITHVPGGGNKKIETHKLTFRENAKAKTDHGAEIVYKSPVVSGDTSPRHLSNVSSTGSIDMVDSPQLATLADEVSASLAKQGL
# Description: (§1) Pre-cast polyacrylamide gels were purchased from NuSep (10-20% Tris-tricine-SDS). These were chosen for their large separation range of 2.5 to 205 kDa. Molecular weight markers were purchased from Sigma Aldrich and diluted twenty fold for individual use. Three buffers were used for this technique: 1) Sample buffer (1.25 mL 0.5 M Tris-HCl (pH 6.8), 2.5 mL glycerol, 2.0 mL 10% SDS, 0.2 mL 0.5% bromophenol blue, 3.55 mL distilled water) which was used as the leading band in the gel. 2) Cathode Buffer (12.11 g tris base, 17.92 g tricine, 1 g SDS, diluted to 1 L with distilled water) which was the inner buffer in the tank assembly. 3) Anode Buffer (5× concentrated: 121.1 g tris base in 1 L of distilled water, pH 8.9 adjusted with concentrated HCl) which was the outer buffer and loaded at 1× concentration. Both Aβ1-40 and Aβ1-42 were purchased from Anaspec.
# (§2) Five solutions were required to stain the gels using the silver stain protocol: 1) Fixer 1 (40% methanol, 10% acetic acid, diluted to 1 L with Millie-Q water) 2) Fixer 2 (45 g anhydrous sodium acetate, 300 mL methanol, 5 mL 25% glutaraldehyde, diluted to 1 L with Millie-Q water), 3) a) Silver stain A (15 mL of 25% ammonia solution, 0.8 g sodium hydroxide, diluted to 950 mL with Millie Q water). b) Silver stain B (6 g of silver nitrate in 50 mL Millie Q water). Solution B was then slowly added to solution A. 4) Developer (0.1 g citric acid, 1 mL formaldehyde, diluted to 1 L with Millie-Q water), 5) Stop solution (50 mL acetic acid, diluted to 1 L with Millie-Q water).
# (§3) Following a ThT (Aβ1-40) or ThS (Tau 441) aggregation assay, described in Example 8 of US2007/0015813, samples were immediately aspirated and stored in centrifuge tubes. 10 μL of each sample was transferred to a microfuge tube and diluted 1:1 with sample buffer before being incubated (37° C.) for 30 minutes and loaded in the precast gels (15 μL in each well). The gel was then run at 100 V for approximately one hour or until the leading band reached the bottom of the gel.
# (§4) Once the gel had finished running, it was removed from its plastic case and placed in a tray for staining. Approximately 200-250 mL volume was used for all the solutions. The gel was first washed with distilled water briefly to rinse off the excess buffer from the tank. It was then immersed in Fixer 1 for 30 minutes. followed by Fixer 2 for 30 minutes. Once the gel was fixed it then underwent three water washes at 10 minutes per wash. After the water washes, the gel was stained for 30 minutes using the silver stain solution. Excess stain was removed using three four-minute water washes. The gel was then immersed in the developer solution to visualize the stain. This took place for approximately 5 minutes or until the desired intensity was reached. To immediately stop the developing process the gel was placed in the stop solution for 10 minutes.
# Aβ1-40 [3] = biological target: T1, Aβ1-40; assay: TEM of Aβ1-40 fibrils; assay type: biochemical; conditions: Aβ1-40 20 μM; for Aβ1-40 fibrils (TEM): absence of ThT; for Aβ1-40 fibril formation (TEM): compound 20 μM, following ThT aggregation assay, FIG. 11
# Description: (§5) A modified version of the procedure of Cohen et al. (Biochemistry 2006, 45: 4727-35) was followed for TEM analysis. Uranylacetate was used as negative stain (Electron Microscopy Sciences) and was made as a 3% solution and stored at 5° C. in the dark to reduce photodecay. Aspirated samples from ThT (Aβ1-40) and ThS (Tau 441) aggregation assays, or Aβ1-42 incubated (37° C.) for 30 min. in the presence and absence of compounds were used in the TEM analyses. Samples were carefully loaded on Formvar-coated 400 mesh copper grids (Electron Microscopy Sciences) as a 10 μL drop. After sitting for 60 seconds, excess fluid was gently dabbed off with filter paper. Next, the 3% uranylacetate was added as a drop onto the grid and left to stand for another 60 seconds. The excess fluid was again dabbed off by filter paper. Samples were left to dry for at least 30 minutes prior to being viewed on an electron microscope operating at 80 kV.
# Tau 441 [4] = biological target: T2, Tau 441; assay: ThS fluorescence assay, Tau 441 aggregation; assay type: biochemical; conditions: Tau 441 6 μM; compound 50 μM and 10 μM; 24 hours, 37° C., FIG. 15
# Description: (§6) The following procedures were used. The compounds were examined by circular dichroism (CD) to confirm their anti-amyloidogenic activity and were further evaluated for inhibition of both tau and α-synuclein aggregation in Thioflavin S (ThS) and ThT dye-binding fluorescence assays, respectively. The compounds were also evaluated in a MTT [3-(4,5-dimethylthiazol-2-yl)-2,5-diphenyltetrazolium bromide] cell viability assay (Kaneko, I., et al., J. Neurochem. (1995) 65: 2585-93). Pharmacokinetic (PK) testing was also performed. Compounds administered to mice (IP or PO dosing) had no toxicity at doses up to 300 mg/kg and were present in brain more than four hours after administration.
# (§7) Dye-binding ThT/ThS protein aggregation assays for Aβ, tau and α-synuclein were performed as described in Example 8 of US2007/0015813.
# Aβ1-42 [5] = biological target: T3, Aβ1-42 (Homo sapiens, UniProt P05067); assay: TEM of Aβ1-42 fibrils; assay type: biochemical; conditions: Aβ1-42 20 μM, absence of ThT, FIG. 13
# T3 construct: Both Aβ1-40 and Aβ1-42 were purchased from Anaspec; purchased Anaspec
# T3 sequence (P05067 672-713 limits assumed): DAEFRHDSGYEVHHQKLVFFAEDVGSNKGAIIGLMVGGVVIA
# Description: as §5
# α-synuclein = α-synuclein (Homo sapiens, UniProt P37840); assay: ThT fluorescence assay, α-synuclein aggregation; assay type: biochemical; conditions: α-synuclein 4 μM; compound 100 μM and 20 μM; 96 hours, 37° C., FIG. 16
# Description: as §6, §7
# Tau 441 [6] = biological target: T2, Tau 441; assay: TEM of Tau 441 fibrils following ThS aggregation assay; assay type: biochemical; conditions: Tau 441 6 μM, compound 20 μM, FIG. 14
# Description: as §5
# [7] = test system: SH-SY5Y neuroblastoma cells; assay: MTT cell viability assay, protection from Aβ40; assay type: cell-based; conditions: Aβ40 20 μM
# Description: The assay was based on that reported by Conte and co-workers (Conte, A., Pellegrini, s. & Tagliazucchi, D. 2Q03. Brain Res. Bull. 62, 29-38). Briefly, Aβ1-40 (1.0 mg) was dissolved directly in Tris base ([…], […], pH approximately 10). The pH was dropped to 7.4 using concentrated HCl and the solution diluted ten-fold with growth medium consisting of Dulbecco's Modified Eagle Medium (high glucose) containing 10% fetal bovine serum. penicillin-G (10,000 units/mL) and streptomycin (10 mg/mL); giving 20 μM Aβ40. For non-Aβ-containing controls. growth medium was diluted 10% with Tris buffer (20 mM, pH 7.4). SH-SY5Y neuroblastoma cells were seeded at approximately 20,000 cells per well in a covered 96-well clear polystyrene plate and incubated at 37° C., 5% CO2 for 24 h. After discarding supernatant, growth medium (200 μL), containing either Aβ3-40 or vehicle (controls), was added to the wells, followed by test compound in DMSO (0.5 μL) or DMSO alone (controls). Incubations all had 5 or more replicates. After incubating for 6-10 h (37° C., 5% C02), the dye 3-(4,5-dimethylthiazol-2-yl)-2,5-diphenyltetrazolium bromide (MTT, 20 microL. 5 mg/mL in PBS) was added to each well and the plate incubated for another 2 h. Medium was discarded and the formazan product dissolved by adding DMSO (100 μL) and shaking. Absorbance was measured at 540 nm in a Tecan Genios microplate reader.
# Aβ1-40 [8] = biological target: T1, Aβ1-40; assay: Tris-tricine SDS-PAGE, Aβ1-40 self-assembly following ThT aggregation assay; assay type: biochemical; conditions: FIG. 9
# Description: as §1, §2, §3, §4
# Aβ1-42 [9] = biological target: T3, Aβ1-42; assay: Tris-tricine SDS-PAGE, Aβ1-42 self-assembly; assay type: biochemical; conditions: versus control, FIG. 8
# Description: as §1
# Five solutions were required to stain the gels using the silver stain protocol: 1) Fixer 1 (40% methanol, 10% acetic acid, diluted to 1 L with Millie-Q water) 2) Fixer 2 (45 g anhydrous sodium acetate, 300 mL methanol, 5 mL 25% glutaraldehyde, diluted to 1 L with Millie-Q water), 3) a) Silver stain A (15 mL of 25% ammonia solution, 0.8 g sodium hydroxide, diluted to 950 mL with Millie Q water). b) Silver stain B (6 g of silver nitrate in 50 mL Millie Q water). […]
# T1 sequence (P05067 672-711 limits assumed): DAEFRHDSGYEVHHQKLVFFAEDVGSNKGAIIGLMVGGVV
compound,measurement,setting,value
"O=C(O)c1cc2cc(-c3ccc4cc(O)ccc4c3)ccc2c(Br)c1O [QR-0263, 4-bromo-3-hydroxy-7-(2-hydroxynaphthalen-6-yl)naphthalene-2-carboxylic acid]",IC50,Aβ1-40 [1],1.93 µM
same,Tau 441 dimer and trimer bands (SDS-PAGE),Tau 441 [2],appearance of dimer and trimer bands
same,"effect on Tau 441 self-assembly, monomer fragmentation (SDS-PAGE)",Tau 441 [2],decreased fragmentation of tau 441 monomer
same,Aβ1-40 fibrils (TEM),"Aβ1-40 [3]; compound at 20, FIG. 12",reduction in fibrils
same,inhibition of Tau 441 aggregation (ThS fluorescence),Tau 441 [4],greatly inhibited
COc1ccc2[nH]cc(-c3c[nH]c4ccc(N)cc34)c2c1 [QR-0185],IC50,Aβ1-40 [1],12.5 µM
same,Aβ1-42 fibrils (TEM),Aβ1-42 [5]; compound 100 μM,decrease in fibrils
O=C(O)c1ccc2[nH]cc(-c3c(O)c(O)cc4ccccc34)c2c1 [QR-0194],IC50,Aβ1-40 [1],17.7 µM
same,Aβ1-40 fibril formation (TEM),Aβ1-40 [3],increase in fibril formation but of a different morphology
same,Aβ1-42 fibrils (TEM),Aβ1-42 [5]; compound 20 μM,apparent increase in the number of fibrils
same,inhibition of α-synuclein aggregation (ThT fluorescence),α-synuclein,showed inhibition
"O=C(O)c1cc2cc(-c3ccc4c(c3)OCCO4)ccc2c(Br)c1O [QR-0281, 4-Bromo-7-(2,3-dihydrobenzo[b][1,4]dioxin-7-yl)-3-hydroxyynaphthalene-2-carboxylic acid]",IC50,Aβ1-40 [1],4.6 µM
same,Tau 441 dimer and trimer bands (SDS-PAGE),Tau 441 [2],appearance of dimer and trimer bands
same,"effect on Tau 441 self-assembly, monomer fragmentation (SDS-PAGE)",Tau 441 [2],decreased fragmentation of tau 441 monomer
same,Tau 441 assemblies seen (TEM),Tau 441 [6],spherical assemblies that were not present in the control
same,Tau 441 fibril formation (TEM),Tau 441 [6],increase in fibril formation
same,inhibition of Tau 441 aggregation (ThS fluorescence),Tau 441 [4],greatly inhibited
"COc1ccc2cc(-c3c[nH]c4c(C(=O)O)cccc34)ccc2c1 [QR-0262, 3-(2-Methoxynaphthalen-6-yl)-1H-indole-7-carboxylic acid]",IC50,Aβ1-40 [1],4.4 µM
same,"effect on Tau 441 self-assembly, monomer fragmentation (SDS-PAGE)",Tau 441 [2],no clear effect
same,Tau 441 assemblies seen (TEM),Tau 441 [6],spherical assemblies that were not present in the control
same,Tau 441 fibril formation (TEM),Tau 441 [6],increase in fibril formation
same,inhibition of Tau 441 aggregation (ThS fluorescence),Tau 441 [4],only moderately inhibited
Oc1ccc2[nH]cc(-c3c[nH]c4ncccc34)c2c1 [QR-0161],"% cell viability, protection from Aβ40",[7]; 20 and 50 μM compound,significantly active
O=C(O)c1cccc2c(-c3c[nH]c4ccccc34)c[nH]c12 [QR-0112],IC50,Aβ1-40 [1],34.4 µM
same,"% cell viability, protection from Aβ40",[7]; 50 μM compound,significantly protective
same,"% cell viability, protection from Aβ40",[7]; 2 and 10 μM compound,trends towards protection
same,effect on distribution of Aβ1-40 among states of assembly / monomer (SDS-PAGE),Aβ1-40 [8],increase in the concentration of Aβ1-40 monomer
same,Aβ1-40 fibril formation (TEM),Aβ1-40 [3],increase in fibril formation but of a different morphology
O=C(O)c1cccc2c(-c3c(O)c(O)cc4ccccc34)c[nH]c12 [QR-0273],IC50,Aβ1-40 [1],10.3 µM
same,effect on Aβ1-42 self-assembly (SDS-PAGE),Aβ1-42 [9],increase in the presence of monomer and pentamer as well as the appearance of a dimer
same,Aβ1-40 fibrils (TEM),"Aβ1-40 [3]; compound 100 μM, FIG. 12",increase in the number of fibrils
